Assay results: patent US10561676B2, “Method for treating cancer using dual antagonists of CXCR1 and CXCR2” (Syntrix Biosystems, Inc., priority 2018, dated 2020)

Key:
[1] = tested on: neutrophils; test: Murine air-pouch model of inflammation; type: in vivo; conditions: depending on the dose given
[2] = Stability in human plasma; type: in vitro ADME; conditions: for t½: 5 μM, 37° C., LC-MS/MS detection
Experimental: The in vitro stability of SX-682 and the congeners of Metabolic Stability Example 1 (FIG. 6) were further studied in human plasma. The reactions were initiated by the addition of 5 μl of a 500 μM DMSO stock solution to 495 μl of preheated plasma solution to yield a final concentration of 5 μM. The assays were performed in a heat block at 37° C. and conducted in duplicate. Samples (50 μl) were taken at 0, 30, 60, 120, 240 min and added to 150 μL acetonitrile in order to deproteinize the plasma. The samples were subjected to vortex mixing for 1 min and then centrifugation for 15 min at 14,000 rpm. The clear supernatants were analyzed by LC-MS.
The in vitro plasma half-life (t½) was calculated using the expression t½=ln(2)/b where b is the slope found in the linear fit of the natural logarithm of the fraction remaining of the parent compound vs. incubation time.

[3] = Stability in human liver microsomes (NADPH-dependent); type: in vitro ADME; conditions: 37° C., NADPH-dependent
Experimental: The compounds were incubated in duplicate with human liver microsomes at 37° C. The reaction contained microsomal protein in 100 mM potassium phosphate, 2 mM NADPH, 3 mM MgCl2, pH 7.4. A control was run for each compound omitting NADPH to detect NADPH-independent degradation. An aliquot was removed from each experimental and control reaction at 0, 10, 20, 30, and 60 minutes and mixed with an equal volume of ice-cold Stop Solution (0.3% acetic acid in acetonitrile containing haloperidol, diclofenac, or other internal standard). Stopped reactions were incubated for at least ten minutes at −20° C., and an additional volume of water was added. The samples were centrifuged to remove precipitated protein, and the supernatants were analyzed by LCMS/MS to quantitate the remaining compound. Data were converted to percent remaining by dividing by the time zero concentration value. Data were fit to a first-order decay model to determine half-life. Intrinsic clearance was calculated from the half-life and the protein concentrations: CLint=ln(2)/(t½[microsomal protein]). […] More surprising is that eliminating the ring nitrogen in SX-517 yielded a half-life even larger than that of SX-682. The results as a whole led to no SAR predictive of the surprising stability of SX-682.

[4] = tested on: Sprague-Dawley rats; test: Ozone rat model of pulmonary inflammation (neutrophil influx into BALF); type: in vivo; conditions: 1 mg/kg i.v. once, 1 ppm ozone 4 hours, BALF at 24 hours
Experimental: SX-682 was assayed in an in vivo rat model of pulmonary inflammation. Activity in this model of pulmonary inflammation provides evidence that supports the use of SX-682 in the treatment of a number of pulmonary inflammatory diseases, including chronic obstructive pulmonary disease (COPD) and bronchopulmonary dysplasia (BPD). In this experiment, Sprague-Dawley rats (n=4 per cohort) were dosed intravenously only once at t=0 with either vehicle control (dimethylformamide/PEG400/saline, 40:40:20), positive inhibitor control (SX-576, 1 mg/kg) or the test compound (SX-682, 1 mg/kg). The rats were then placed in air (negative exposure group; vehicle control only) or 1 ppm ozone (positive exposure group; vehicle control, positive inhibitor control SX-576, and test compound SX-682) for 4 hours. The rats were then sacrificed at t=24 hours, and the bronchoalveolar lavage fluid (BALF) was collected. The cells were spun down, stained with Wright-Giemsa and counted. In the negative exposure group, no neutrophils were observed when stained. In the ozone exposed rats treated with vehicle however, there was a brisk influx of neutrophils of approximately 14,000 per mL of BALF (FIG. 5).

[5] = tested on: C3Tag mouse model of breast cancer; test: C3Tag mouse model of breast cancer; type: in vivo; conditions: SX-682 10 mg/day/mouse oral; carboplatin 50 mg/kg weekly i.p.; vehicle 18 days
Text: The C31-T-antigen (C3Tag) mouse model is a validated model of human triple-negative basal cell breast cancer as shown by gene expression analysis (Maroulakou, 1994, Proc Natl Acad Sci, 91:11236-40, herein incorporated by reference). The expressed large T-antigen binds and inactivates the RB and p53 tumor suppressor genes, explaining why this model faithfully recapitulates human basal breast cancer, which also harbors RB and p53 inactivation. This model also has frequent K-Ras amplification and infrequent Ras mutations. Treatment regimens were started following tumor manifestation. SX-682 was given orally via medicated feed, at an approximate dose of 10 mg/day/mouse. CP was administered once weekly via intraperitoneal injection at a dose of 50 mg/kg.

O=C(Nc1ccc(F)cc1)c1ccc(SCc2ccccc2B(O)O)nc1 [SX-517]
activity on neutrophils [1]: both inhibitory and agonist activity on neutrophils were achieved
t½ [2]: 1.88 h
reduction in plasma half-life ([2]; relative to SX-682/SX-576): 5 fold
t½, half-life [3]: 6.75 h

O=C(Nc1ccc(F)cc1)c1ccc(SCc2cc(OC(F)(F)F)ccc2B(O)O)nc1 [SX-576]
activity on neutrophils [1]: both inhibitory and agonist activity on neutrophils were achieved
t½ [2]: 8.88 h
t½, half-life [3]: 0.833 h
influx of neutrophils into the lungs (BALF) vs vehicle [4]: significantly decreased the influx of neutrophils

N.N.O=C([O-])C1(C(=O)[O-])CCC1.[Pt+2] [carboplatin, reference compound]
median survival, single agent [5]: 28 days
